Data taken from patent US20120128654A1, “Allantoin Administration for the Treatment of Neurodegenerative Disease and Neurotrauma” (UNIVERSITY OF CINCINNATI, priority 2009, published 2012).
“Also recorded” adds a separate entry of the source.

Assays:
[1] = Oral allantoin administration, plasma allantoin levels in monkeys; assay type: in vivo, African green monkey
Protocol: To determine whether oral allantoin administration could increase plasma levels of allantoin in non-human primates, African green monkeys were fed allantoin (n=4). All monkeys were initially fed 26 mg/kg/day for 1 week, after which the allantoin concentration was increased to a level of 52 mg/kg/day for an additional week. The allantoin was mixed to the appropriate concentration in fruit juice and given to the monkeys to drink. For plasma analysis of allantoin venous blood was obtained from the right ventricle (rat) and collected from repeated blood draws (African green monkey). Blood was immediately centrifuged at 10,500 rpms (this needs to be in G) for 5 minutes. Supernatant was then removed and analyzed for allantoin. Enzymatic detection of allantoin was performed as previously described with the exception of reaction volumes being adjusted to accommodate the use of a 96 well microtiter plate (Muratsubaki et al., Enzymatic assay of allantoin in serum using allantoinase and allantoate amidohydrolase, Anal. Biochem. 359:161-166 (2006)). […] Following a 15 minute incubation, absorbance was read on a spectrometer at 340 nm. […] Following a 10 minute incubation absorbance was once again measured at 340 nm. The final absorbance was subtracted from the absorbance following the addition of allantoinase. […] Allantoin levels in plasma were determined utilizing the enzymatic detection assay. […]

[2] = Oral allantoin administration (gavage), plasma allantoin levels in rats; assay type: in vivo, Sprague Dawley rats
Protocol: Rats also received oral allantoin via gastric gavage. Rats were firmly restrained via grasping the loose skin of the neck and back to immobilize the head. While maintaining the rat in an upright position, the gavage needle (20 G×1½″) was passed through the side of the mouth and advanced into the esophagus by following the roof of the mouth and advanced further toward the stomach. After the needle was passed to the correct length, 125 mg of allantoin, dissolved in water or water, was injected. This procedure was repeated daily for five days.
For plasma analysis of allantoin venous blood was obtained from the right ventricle (rat) and collected from repeated blood draws (African green monkey). Blood was immediately centrifuged at 10,500 rpms (this needs to be in G) for 5 minutes. Supernatant was then removed and analyzed for allantoin. […] Following a 15 minute incubation, absorbance was read on a spectrometer at 340 nm. […] Following a 10 minute incubation absorbance was once again measured at 340 nm. The final absorbance was subtracted from the absorbance following the addition of allantoinase. […]
Rats received oral allantoin or water via gavage once daily for 5 days. […] Allantoin levels in plasma were determined utilizing the enzymatic detection assay. […]

## NC(=O)NC1NC(=O)NC1=O (stereo not shown) [allantoin]
[1]; African green monkey, oral, after one week at 52 mg/kg/day (following 1 week at 26 mg/kg/day), vs baseline, trough
  plasma allantoin levels: tripling
[1]; monkeys, oral allantoin 26 then 52 mg/kg/day, 1 week each
  negative health consequences: Neither the rats nor the monkeys exhibited any obvious negative health consequences
[2]; rat, 125 mg oral gavage once daily for 5 days, blood two hours following final dose, vs water
  plasma allantoin levels: doubling; also recorded: significant increase
[2]; rats, oral allantoin once daily for 5 days
  negative health consequences: Neither the rats nor the monkeys exhibited any obvious negative health consequences
